Article PMC8185074, “Anchor extension: a structure-guided approach to design cyclic peptides targeting enzyme active sites” (Nature Communications, 2021)
Where two headings read alike, the source gives them in different places. Each block holds one molecule with its values, some of them ahead of it. Peptide text beside a SMILES is read from it.

Key:
Assay type in all cases: biochemical
HDAC6 = target: T1, HDAC6 (Homo sapiens, UniProt Q9UBN7); test: HDAC6 inhibition, full IC50 measurement (Reaction Biology; fluorogenic p53 peptide RHKK(Ac)AMC); conditions: for IC50: read-out: HDAC6 IC50
T1 construct: purchased Reaction Biology Corporation (assay run by the CRO)
T1 sequence (Q9UBN7 1-1215): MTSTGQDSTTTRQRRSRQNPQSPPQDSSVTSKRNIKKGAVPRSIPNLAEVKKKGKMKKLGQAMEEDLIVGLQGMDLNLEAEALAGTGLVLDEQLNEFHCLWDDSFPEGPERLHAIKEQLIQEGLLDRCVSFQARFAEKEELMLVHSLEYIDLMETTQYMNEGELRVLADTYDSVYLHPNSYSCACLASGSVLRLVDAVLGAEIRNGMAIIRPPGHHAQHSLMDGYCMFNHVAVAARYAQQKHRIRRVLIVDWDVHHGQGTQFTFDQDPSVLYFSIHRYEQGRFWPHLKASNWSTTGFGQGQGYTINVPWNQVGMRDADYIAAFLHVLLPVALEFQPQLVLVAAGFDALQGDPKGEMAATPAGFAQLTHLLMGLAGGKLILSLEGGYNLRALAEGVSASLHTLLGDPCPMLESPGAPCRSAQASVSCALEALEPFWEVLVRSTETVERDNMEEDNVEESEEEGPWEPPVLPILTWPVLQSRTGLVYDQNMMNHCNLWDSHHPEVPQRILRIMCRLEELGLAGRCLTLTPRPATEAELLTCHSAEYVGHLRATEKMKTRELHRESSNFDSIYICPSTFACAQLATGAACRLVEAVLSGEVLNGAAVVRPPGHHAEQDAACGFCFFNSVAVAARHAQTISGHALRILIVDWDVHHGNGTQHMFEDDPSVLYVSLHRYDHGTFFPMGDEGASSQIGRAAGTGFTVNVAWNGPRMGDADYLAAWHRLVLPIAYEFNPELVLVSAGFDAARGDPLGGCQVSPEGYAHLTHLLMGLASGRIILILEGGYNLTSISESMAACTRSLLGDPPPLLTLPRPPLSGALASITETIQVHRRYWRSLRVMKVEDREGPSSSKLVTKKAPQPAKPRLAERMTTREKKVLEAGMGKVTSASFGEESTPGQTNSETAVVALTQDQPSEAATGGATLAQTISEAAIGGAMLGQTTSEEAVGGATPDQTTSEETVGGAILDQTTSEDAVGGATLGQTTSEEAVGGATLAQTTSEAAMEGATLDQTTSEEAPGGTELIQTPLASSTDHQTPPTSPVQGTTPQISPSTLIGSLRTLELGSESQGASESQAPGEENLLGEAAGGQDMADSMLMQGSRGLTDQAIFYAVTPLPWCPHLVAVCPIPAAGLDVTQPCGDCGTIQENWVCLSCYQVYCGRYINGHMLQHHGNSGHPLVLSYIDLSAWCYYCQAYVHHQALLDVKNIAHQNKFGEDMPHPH
Outline: (§1)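 Inhibitory peptides were acoustically dispensed with enzyme, then substrate added; 1 h at 30 °C. Developer stopped reaction; plateau endpoint fluorescence (360/460 nm) gave IC50.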

HDAC3 = target: T2, HDAC3 (Homo sapiens, UniProt O15379); test: HDAC3 inhibition, full IC50 measurement (Reaction Biology; fluorogenic p53 peptide RHKK(Ac)AMC)
T2 construct: purchased Reaction Biology Corporation (assay run by the CRO)
T2 sequence (O15379 whole entry): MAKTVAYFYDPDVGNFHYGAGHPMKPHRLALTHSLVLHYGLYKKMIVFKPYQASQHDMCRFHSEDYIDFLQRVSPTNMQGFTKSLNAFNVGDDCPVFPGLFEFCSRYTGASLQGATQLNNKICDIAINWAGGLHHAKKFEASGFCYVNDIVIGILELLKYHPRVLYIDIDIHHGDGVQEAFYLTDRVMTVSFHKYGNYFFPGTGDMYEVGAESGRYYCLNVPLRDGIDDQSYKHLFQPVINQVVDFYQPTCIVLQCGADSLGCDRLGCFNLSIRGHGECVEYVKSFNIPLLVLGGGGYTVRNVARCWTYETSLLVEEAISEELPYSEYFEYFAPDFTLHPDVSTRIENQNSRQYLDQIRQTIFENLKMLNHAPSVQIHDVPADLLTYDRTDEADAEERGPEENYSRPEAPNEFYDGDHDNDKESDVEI
T2 sequence (Q9Y618 395-489 partner limits assumed): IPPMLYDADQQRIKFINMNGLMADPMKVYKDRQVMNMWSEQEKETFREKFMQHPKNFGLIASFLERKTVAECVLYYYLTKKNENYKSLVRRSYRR
Outline: as §1

HDAC2 = target: T3, HDAC2 (Homo sapiens, UniProt Q92769); test: Initial HDAC2 IC50 estimate (BPS Biosciences HDAC fluorogenic assay kit); conditions: Supplementary Dataset 2; read-out: HDAC2 activity (initial activity)
T3 construct: purchased Reaction Biology Corporation (assay run by the CRO)
T3 sequence (Q92769 whole entry): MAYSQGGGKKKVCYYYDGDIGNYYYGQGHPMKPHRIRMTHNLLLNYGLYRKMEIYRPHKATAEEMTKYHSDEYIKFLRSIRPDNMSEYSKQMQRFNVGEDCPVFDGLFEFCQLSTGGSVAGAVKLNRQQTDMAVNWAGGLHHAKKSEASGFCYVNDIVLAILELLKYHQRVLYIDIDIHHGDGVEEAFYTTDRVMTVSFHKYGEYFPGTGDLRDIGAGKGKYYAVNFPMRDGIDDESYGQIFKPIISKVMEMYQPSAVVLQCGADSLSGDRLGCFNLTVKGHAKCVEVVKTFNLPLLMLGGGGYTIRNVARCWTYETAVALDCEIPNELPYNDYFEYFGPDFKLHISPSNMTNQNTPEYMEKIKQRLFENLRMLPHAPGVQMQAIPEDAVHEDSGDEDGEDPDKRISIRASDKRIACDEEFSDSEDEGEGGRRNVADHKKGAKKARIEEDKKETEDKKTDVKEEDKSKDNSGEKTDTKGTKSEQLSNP
Outline: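 Inhibition measured by kit-based fluorogenic HDAC activity assays, with each point in duplicate or triplicate. Values come from a full 1 µM–100 pM series (1:10 steps) or are range estimates from just 20 nM and 200 nM.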

SMILES: CC(C)[C@@H]1NC(=O)[C@H](CCCNC(=N)N)NC(=O)[C@@H](CC(=O)O)NC(=O)[C@H](CO)NC(=O)[C@@H](CO)NC(=O)[C@@H](CCC(=O)O)NC(=O)[C@H](Cc2ccc(O)cc2)NC(=O)[C@H](CCCCCS)NC1=O [des4.2.0, SHA-Tyr-dGlu-dSer-Ser-dAsp-Arg-Val] (HELM PEPTIDE1{R.V.[O=C([C@H](CCCCCS)N[*:1])[*:2]].Y.[dE].[dS].S.[dD]}$PEPTIDE1,PEPTIDE1,1:R1-8:R2$$$V2.0)
HDAC6 activity raw data (signal) (HDAC6; Conc. 1.00E-05 M, t1): -7055
HDAC6 activity raw data (signal) (HDAC6; Conc. 1.00E-05 M, t2): -3082
HDAC6 activity raw data (signal) (HDAC6; Conc. 1.11E-06 M, t1): 103285
HDAC6 activity raw data (signal) (HDAC6; Conc. 1.11E-06 M, t2): 106610
HDAC6 activity raw data (signal) (HDAC6; Conc. 1.23E-07 M, t1): 299609
HDAC6 activity raw data (signal) (HDAC6; Conc. 1.23E-07 M, t2): 290391
HDAC6 activity raw data (signal) (HDAC6; Conc. 1.37E-08 M, t1): 820280
HDAC6 activity raw data (signal) (HDAC6; Conc. 1.37E-08 M, t2): 820159
HDAC6 activity raw data (signal) (HDAC6; Conc. 1.52E-09 M, t1): 1558048
HDAC6 activity raw data (signal) (HDAC6; Conc. 1.52E-09 M, t2): 1527304
HDAC6 activity raw data (signal) (HDAC6; Conc. 3.33E-06 M, t1): 43007
HDAC6 activity raw data (signal) (HDAC6; Conc. 3.33E-06 M, t2): 45218
HDAC6 activity raw data (signal) (HDAC6; Conc. 3.70E-07 M, t1): 181567
HDAC6 activity raw data (signal) (HDAC6; Conc. 3.70E-07 M, t2): 190636
HDAC6 activity raw data (signal) (HDAC6; Conc. 4.12E-08 M, t1): 459108
HDAC6 activity raw data (signal) (HDAC6; Conc. 4.12E-08 M, t2): 432840
HDAC6 activity raw data (signal) (HDAC6; Conc. 4.57E-09 M, t1): 1111578
HDAC6 activity raw data (signal) (HDAC6; Conc. 4.57E-09 M, t2): 1107939
HDAC6 activity raw data (signal) (HDAC6; Conc. 5.08E-10 M, t1): 1904356
HDAC6 activity raw data (signal) (HDAC6; Conc. 5.08E-10 M, t2): 1828745
selectivity for HDAC6 over HDAC8 (HDAC6; Supp. Table 8): 80 fold
selectivity for HDAC6 over HDACs1/2/3 (HDAC6; Supp. Table 8): > 10 fold
IC50 (HDAC6; figure legends, Supp. Tables 1 and 8): 4.4 nM
HDAC3 activity raw data (signal) (HDAC3; Conc. 1.00E-05 M, t1): 26422
HDAC3 activity raw data (signal) (HDAC3; Conc. 1.00E-05 M, t2): 22359
HDAC3 activity raw data (signal) (HDAC3; Conc. 1.11E-06 M, t1): 160928
HDAC3 activity raw data (signal) (HDAC3; Conc. 1.11E-06 M, t2): 163740
HDAC3 activity raw data (signal) (HDAC3; Conc. 1.23E-07 M, t1): 525206
HDAC3 activity raw data (signal) (HDAC3; Conc. 1.23E-07 M, t2): 581691
HDAC3 activity raw data (signal) (HDAC3; Conc. 1.37E-08 M, t1): 1076943
HDAC3 activity raw data (signal) (HDAC3; Conc. 1.37E-08 M, t2): 1111273
HDAC3 activity raw data (signal) (HDAC3; Conc. 1.52E-09 M, t1): 1186064
HDAC3 activity raw data (signal) (HDAC3; Conc. 1.52E-09 M, t2): 1359852
HDAC3 activity raw data (signal) (HDAC3; Conc. 3.33E-06 M, t1): 71800
HDAC3 activity raw data (signal) (HDAC3; Conc. 3.33E-06 M, t2): 63219
HDAC3 activity raw data (signal) (HDAC3; Conc. 3.70E-07 M, t1): 296381
HDAC3 activity raw data (signal) (HDAC3; Conc. 3.70E-07 M, t2): 296142
HDAC3 activity raw data (signal) (HDAC3; Conc. 4.12E-08 M, t1): 806773
HDAC3 activity raw data (signal) (HDAC3; Conc. 4.12E-08 M, t2): 863981
HDAC3 activity raw data (signal) (HDAC3; Conc. 4.57E-09 M, t1): 1182733
HDAC3 activity raw data (signal) (HDAC3; Conc. 4.57E-09 M, t2): 1313514
HDAC3 activity raw data (signal) (HDAC3; Conc. 5.08E-10 M, t1): 1345816
HDAC3 activity raw data (signal) (HDAC3; Conc. 5.08E-10 M, t2): 1394913
IC50 (HDAC3; Supp. Table 1): 71.2 nM
IC50 (HDAC2): 200 nM

HDAC6 raw activity signal (HDAC6; Conc. 1.00E-05 M): 33328
HDAC6 raw activity signal (HDAC6; Conc. 1.11E-06 M): 230710
HDAC6 raw activity signal (HDAC6; Conc. 1.23E-07 M): 527992
HDAC6 raw activity signal (HDAC6; Conc. 1.37E-08 M): 589576
HDAC6 raw activity signal (HDAC6; Conc. 1.52E-09 M): 605039
HDAC6 raw activity signal (HDAC6; Conc. 3.33E-06 M): 100537
HDAC6 raw activity signal (HDAC6; Conc. 3.70E-07 M): 381738
HDAC6 raw activity signal (HDAC6; Conc. 4.12E-08 M): 574853
HDAC6 raw activity signal (HDAC6; Conc. 4.57E-09 M): 596934
HDAC6 raw activity signal (HDAC6; Conc. 5.08E-10 M): 614098
IC50 (HDAC6): 600 nM
HDAC3 raw activity signal (HDAC3; Conc. 1.00E-05 M): 305013
HDAC3 raw activity signal (HDAC3; Conc. 1.11E-06 M): 772070
HDAC3 raw activity signal (HDAC3; Conc. 1.23E-07 M): 916440
HDAC3 raw activity signal (HDAC3; Conc. 1.37E-08 M): 1023518
HDAC3 raw activity signal (HDAC3; Conc. 1.52E-09 M): 969054
HDAC3 raw activity signal (HDAC3; Conc. 3.33E-06 M): 650146
HDAC3 raw activity signal (HDAC3; Conc. 3.70E-07 M): 835487
HDAC3 raw activity signal (HDAC3; Conc. 4.12E-08 M): 896484
HDAC3 raw activity signal (HDAC3; Conc. 4.57E-09 M): 995503
HDAC3 raw activity signal (HDAC3; Conc. 5.08E-10 M): 959845
IC50 (HDAC2): 5000 nM
SMILES: N[C@@H](CCCCCS)C(=O)O [SHA, 2S-2-amino-7-sulfanylheptanoic acid]
HDAC6 inhibition potency in words (HDAC6): low micro-molar to high nano-molar affinities
HDAC3 inhibition potency in words (HDAC3): low micro-molar to high nano-molar affinities
